The structures appear in SMILES notation.

This assay addresses T1, CBL-B (Homo sapiens, UniProt Q13191).
T1 construct: GST
Put plainly: CBL-B TR-FRET IC50 screening (E1/E2 ubiquitination, Biotin-Ubiquitin, Anti GST-Tb donor / Streptavidin-d2 acceptor). Type of assay: biochemical. As to conditions: second part of Table 2 (head 'Patent Cmpd No / Updated Activity'); same CBL-B TR-FRET IC50 bins A-F; read-out: Updated Activity.

T1 sequence (Q13191 whole entry): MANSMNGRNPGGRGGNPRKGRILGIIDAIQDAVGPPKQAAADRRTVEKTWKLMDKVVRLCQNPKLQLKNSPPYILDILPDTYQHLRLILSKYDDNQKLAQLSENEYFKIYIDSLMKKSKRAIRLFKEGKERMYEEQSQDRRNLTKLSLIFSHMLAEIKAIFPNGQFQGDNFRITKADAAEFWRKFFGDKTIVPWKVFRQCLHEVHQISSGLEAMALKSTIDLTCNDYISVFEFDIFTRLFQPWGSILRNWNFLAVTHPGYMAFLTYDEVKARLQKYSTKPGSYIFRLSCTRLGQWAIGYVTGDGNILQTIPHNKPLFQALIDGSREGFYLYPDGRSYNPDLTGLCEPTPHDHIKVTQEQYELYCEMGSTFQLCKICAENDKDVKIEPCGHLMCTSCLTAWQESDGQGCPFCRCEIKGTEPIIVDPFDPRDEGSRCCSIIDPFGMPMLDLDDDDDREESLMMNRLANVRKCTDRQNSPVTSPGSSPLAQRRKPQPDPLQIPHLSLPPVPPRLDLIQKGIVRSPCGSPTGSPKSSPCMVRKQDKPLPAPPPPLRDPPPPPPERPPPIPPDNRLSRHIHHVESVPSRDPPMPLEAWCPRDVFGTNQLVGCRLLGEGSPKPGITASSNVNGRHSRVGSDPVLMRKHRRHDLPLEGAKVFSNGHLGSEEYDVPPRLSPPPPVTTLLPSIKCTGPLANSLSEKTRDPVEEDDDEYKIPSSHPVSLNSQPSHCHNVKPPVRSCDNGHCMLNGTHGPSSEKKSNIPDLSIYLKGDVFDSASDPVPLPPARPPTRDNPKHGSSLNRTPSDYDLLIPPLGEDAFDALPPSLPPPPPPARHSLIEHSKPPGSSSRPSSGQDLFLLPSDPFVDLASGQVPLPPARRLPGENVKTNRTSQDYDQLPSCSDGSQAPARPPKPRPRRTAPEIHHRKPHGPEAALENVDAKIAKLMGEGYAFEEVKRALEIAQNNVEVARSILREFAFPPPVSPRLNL

As for `COC(=O)CCN(C)Cc1cc(C(F)(F)F)c2cn(-c3cccc([C@H](c4nncn4C)C4CCC4)c3)c(=O)n2c1` [Compound 596], the IC50 was less than 0.1 µM.

In the case of `[2H]C([2H])(c1cc(C(F)(F)F)c2cn(-c3cccc([C@H](c4nncn4C)C4CCC4)c3)c(=O)n2c1)N1CCC[C@H](C(F)(F)F)C1` [Compound 597_P1], the IC50 lay within 3 to 10 µM.

On to `[2H]C([2H])(c1cc(C(F)(F)F)c2cn(-c3cccc([C@H](c4nncn4C)C4CCC4)c3)c(=O)n2c1)N1CCC[C@@H](C(F)(F)F)C1` [Compound 597_P2], for which the IC50 was less than 0.1 µM.

With `CN1CCN(Cc2cc(C(F)(F)F)c3cn(-c4cccc([C@H](c5nncn5C)C5CCC5)c4)c(=O)n3c2)S1(=O)=O` [Compound 608], the IC50 is less than 0.1 µM.

On to `Cn1cnnc1[C@@H](c1cccc(-n2cc3c(C(F)(F)F)cc(CN4CCC5(CCNC5=O)CC4)cn3c2=O)c1)C1CCC1` [Compound 609], for which the IC50 is less than 0.1 µM.

Take `C[C@H](c1cc(C(F)(F)F)c2cn(-c3cccc([C@H](c4nncn4C)C4CCC4)c3)c(=O)n2c1)N(C)Cc1cncs1` [Compound 610_P1]: the IC50 was less than 0.1 µM.

`C[C@@H](c1cc(C(F)(F)F)c2cn(-c3cccc([C@H](c4nncn4C)C4CCC4)c3)c(=O)n2c1)N(C)Cc1cncs1` [Compound 610_P2]: the IC50 was less than 0.1 µM.

For `COCCn1ccnc1-c1cc(C(F)(F)F)c2cn(-c3cccc(C4(c5nncn5C)CCC4)c3)c(=O)n2c1` [Compound 611], the IC50 was 0.1 to 0.3 µM.

As to `C[C@@H]1CN(Cc2cc(C(F)(F)F)c3cn(-c4cccc([C@@H](c5nncn5C)C5CC5)c4)c(=O)n3c2)CCO1` [Compound 612_P1], the IC50 was more than 10 µM.

On to `C[C@@H]1CN(Cc2cc(C(F)(F)F)c3cn(-c4cccc([C@H](c5nncn5C)C5CC5)c4)c(=O)n3c2)CCO1` [Compound 612_P2], for which the IC50 is less than 0.1 µM.

For the compound `CN1CCC2(CN(Cc3cc(C(F)(F)F)c4cn(-c5cccc([C@H](c6nncn6C)C6CCC6)c5)c(=O)n4c3)C2)C1=O` [Compound 622], the IC50 was less than 0.1 µM.

Take `C[C@H]1CCCN(Cc2cc(C(F)(F)F)c3cn(-c4cccc(C5(c6nncs6)CC(C)(C)C5)c4)c(=O)n3c2)C1` [Compound 624]: the IC50 lay in the range of 0.301 to 1 µM.

Consider `Cn1cnnc1[C@@H](c1cccc(-n2cc3c(C(F)(F)F)cc(CN4CCCC(n5cnnc5)C4)cn3c2=O)c1)C1CCC1` (stereo partly drawn) [Compound 625], for which the IC50 is less than 0.1 µM.

For the compound `C[C@H]1CCCN(Cc2cc(C(F)(F)F)c3cn(-c4cccc(C5(c6nncs6)CCC5)c4)c(=O)n3c2)C1` [Compound 626], the IC50 was less than 0.1 µM.

With `C[C@H]1CCCN(Cc2cc(C(F)(F)F)c3cn(-c4cc([C@@H](c5nncn5C)C5CCC5)ccn4)c(=O)n3c2)C1` [Compound 627_P1], the IC50 was less than 0.1 µM.

For `C[C@H]1CCCN(Cc2cc(C(F)(F)F)c3cn(-c4cc([C@H](c5nncn5C)C5CCC5)ccn4)c(=O)n3c2)C1` [Compound 627_P2], the IC50 is 1 to 3 µM.

`C[C@H]1CCCN(Cc2cc(C(F)(F)F)c3cn(-c4cncc([C@@H](c5nncn5C)C5CCC5)c4)c(=O)n3c2)C1` [Compound 628_P1]: the IC50 was less than 0.1 µM.

As to `C[C@H]1CCCN(Cc2cc(C(F)(F)F)c3cn(-c4cncc([C@H](c5nncn5C)C5CCC5)c4)c(=O)n3c2)C1` [Compound 628_P2], the IC50 lay within 3 to 10 µM.

Values taken from patent US20240228482A1, “COMPOUNDS, COMPOSITIONS AND METHODS OF TREATING CANCER” (HOTSPOT THERAPEUTICS, INC., priority 2021, published 2024).
